Results: ChEMBL document CHEMBL1201862, “PubChem BioAssay data set” (2004)
Each block holds one molecule with its values, some of them ahead of it. Activity calls are given as the source filed them.

How the values were obtained:
[1] = biological target: T1, Sentrin-specific protease 8 (Homo sapiens, UniProt Q96LD8); format: functional
T1 sequence (Q96LD8 whole entry): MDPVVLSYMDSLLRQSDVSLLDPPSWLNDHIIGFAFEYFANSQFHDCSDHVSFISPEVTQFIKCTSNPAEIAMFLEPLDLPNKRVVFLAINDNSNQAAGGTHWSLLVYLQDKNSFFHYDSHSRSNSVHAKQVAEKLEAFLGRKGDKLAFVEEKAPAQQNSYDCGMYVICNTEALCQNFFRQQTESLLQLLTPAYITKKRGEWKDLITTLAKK

[2] = biological target: T1, Sentrin-specific protease 8; format: functional; remark: listed apart in the source
[3] = biological target: T1, Sentrin-specific protease 8; format: functional; remark: listed apart in the source
[4] = biological target: Dual specificity protein kinase CLK2 (Homo sapiens, UniProt P49760); format: functional
[5] = biological target: Serine/threonine-protein kinase TBK1 (Homo sapiens, UniProt Q9UHD2); experiment: Navigating the Kinome. Panel member name: TBK1; format: functional
[6] = biological target: Proto-oncogene tyrosine-protein kinase receptor Ret (Homo sapiens, UniProt P07949); format: functional;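 further: measured within a kinome-wide profiling panel, RET as the panel member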
[7] = biological target: Serine/threonine-protein kinase PAK 4 (Homo sapiens, UniProt O96013); format: functional;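 further: value obtained within a kinome profiling panel in which PAK4 was one of the panel members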
[8] = biological target: Mitogen-activated protein kinase 9 (Homo sapiens, UniProt P45984); format: functional;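 further: value from a kinome panel profiling assay, MAPK9 panel entry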
[9] = biological target: Vascular endothelial growth factor receptor 2 (Homo sapiens, UniProt P35968); format: functional
[10] = biological target: Dual specificity tyrosine-phosphorylation-regulated kinase 1B (Homo sapiens, UniProt Q9Y463); experiment: Navigating the Kinome. Panel member name: DYRK1B; format: functional
[11] = biological target: Rho-associated protein kinase 1 (Homo sapiens, UniProt Q13464); format: functional;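 further: measured within a broad kinome-wide panel profiling many kinases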
[12] = biological target: Serine/threonine-protein kinase Nek2 (Homo sapiens, UniProt P51955); format: functional
[13] = biological target: Dual specificity protein kinase CLK4 (Homo sapiens, UniProt Q9HAZ1); format: functional
[14] = C. albicans growth with fluconazole, confirmation, fluorescence, retest (AID 2467); format: functional, cell-based
Beta-galactosidase = Beta-galactosidase (Escherichia coli, UniProt Q8VNN2); experiment: beta-galactosidase enzyme inhibitors and activators, dose response, artefact control for CCR6 antagonist project, biochemical, E. coli enzyme, set 3 (AID 504712); format: functional
Insulin-degrading enzyme = biological target: T2, Insulin-degrading enzyme (Homo sapiens, UniProt P14735); experiment: activators of recombinant IDE enzyme, dose response, counter-screen for IDE activator project, biochemical, fluorescence polarization (AID 588681)
T2 sequence (P14735 whole entry): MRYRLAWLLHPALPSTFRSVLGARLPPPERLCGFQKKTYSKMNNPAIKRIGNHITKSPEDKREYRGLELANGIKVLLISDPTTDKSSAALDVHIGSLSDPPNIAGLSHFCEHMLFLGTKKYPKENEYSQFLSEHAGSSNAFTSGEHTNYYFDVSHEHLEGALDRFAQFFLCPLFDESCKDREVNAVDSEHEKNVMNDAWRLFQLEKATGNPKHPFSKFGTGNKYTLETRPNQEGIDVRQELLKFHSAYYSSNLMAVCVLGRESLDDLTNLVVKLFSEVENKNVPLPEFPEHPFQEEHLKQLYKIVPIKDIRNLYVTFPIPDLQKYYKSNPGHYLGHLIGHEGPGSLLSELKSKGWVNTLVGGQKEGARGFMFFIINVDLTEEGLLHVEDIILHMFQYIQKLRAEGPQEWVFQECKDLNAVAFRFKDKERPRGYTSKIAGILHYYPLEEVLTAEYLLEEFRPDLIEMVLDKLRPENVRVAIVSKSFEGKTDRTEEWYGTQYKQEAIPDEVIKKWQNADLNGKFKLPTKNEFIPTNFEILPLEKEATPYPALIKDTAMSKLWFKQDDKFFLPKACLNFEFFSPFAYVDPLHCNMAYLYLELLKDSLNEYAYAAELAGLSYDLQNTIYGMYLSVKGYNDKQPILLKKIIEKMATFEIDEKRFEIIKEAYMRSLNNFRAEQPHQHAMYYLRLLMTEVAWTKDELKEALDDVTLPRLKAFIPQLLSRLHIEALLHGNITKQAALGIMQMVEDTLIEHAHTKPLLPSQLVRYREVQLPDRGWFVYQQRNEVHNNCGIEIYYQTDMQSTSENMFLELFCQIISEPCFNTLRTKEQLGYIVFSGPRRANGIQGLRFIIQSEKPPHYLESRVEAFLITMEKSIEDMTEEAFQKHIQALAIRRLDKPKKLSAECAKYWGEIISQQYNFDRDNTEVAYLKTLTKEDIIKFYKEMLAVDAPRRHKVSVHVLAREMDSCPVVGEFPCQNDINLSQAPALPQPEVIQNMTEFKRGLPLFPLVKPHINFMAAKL

Chain of Beta-galactosidase (Q8VNN2 whole entry): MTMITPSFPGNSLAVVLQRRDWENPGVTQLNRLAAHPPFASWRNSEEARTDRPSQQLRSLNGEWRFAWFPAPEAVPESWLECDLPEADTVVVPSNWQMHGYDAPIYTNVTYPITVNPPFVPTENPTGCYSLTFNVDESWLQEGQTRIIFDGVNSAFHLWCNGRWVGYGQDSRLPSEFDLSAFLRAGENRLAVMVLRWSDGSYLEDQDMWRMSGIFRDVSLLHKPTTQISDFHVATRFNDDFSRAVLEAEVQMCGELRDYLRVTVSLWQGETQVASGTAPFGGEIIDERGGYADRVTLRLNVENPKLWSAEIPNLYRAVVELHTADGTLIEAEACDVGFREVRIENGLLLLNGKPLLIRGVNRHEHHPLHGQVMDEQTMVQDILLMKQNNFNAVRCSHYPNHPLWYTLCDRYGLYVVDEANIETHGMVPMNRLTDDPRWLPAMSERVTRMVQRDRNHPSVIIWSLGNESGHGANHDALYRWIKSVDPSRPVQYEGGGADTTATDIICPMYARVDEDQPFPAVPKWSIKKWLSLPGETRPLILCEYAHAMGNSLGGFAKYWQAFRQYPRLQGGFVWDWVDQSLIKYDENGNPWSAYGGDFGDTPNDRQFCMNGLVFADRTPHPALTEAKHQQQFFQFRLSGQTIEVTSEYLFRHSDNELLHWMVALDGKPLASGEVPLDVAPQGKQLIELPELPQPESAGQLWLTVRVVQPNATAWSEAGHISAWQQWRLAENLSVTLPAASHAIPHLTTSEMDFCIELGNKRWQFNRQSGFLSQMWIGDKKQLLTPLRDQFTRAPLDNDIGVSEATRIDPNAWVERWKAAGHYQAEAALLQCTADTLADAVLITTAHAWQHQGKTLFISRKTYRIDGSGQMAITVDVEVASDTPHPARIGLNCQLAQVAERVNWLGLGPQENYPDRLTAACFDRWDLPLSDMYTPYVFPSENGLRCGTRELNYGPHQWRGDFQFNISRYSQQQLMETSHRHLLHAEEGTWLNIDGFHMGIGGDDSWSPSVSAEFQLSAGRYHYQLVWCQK
Chain of Dual specificity protein kinase CLK4 (Q9HAZ1 whole entry): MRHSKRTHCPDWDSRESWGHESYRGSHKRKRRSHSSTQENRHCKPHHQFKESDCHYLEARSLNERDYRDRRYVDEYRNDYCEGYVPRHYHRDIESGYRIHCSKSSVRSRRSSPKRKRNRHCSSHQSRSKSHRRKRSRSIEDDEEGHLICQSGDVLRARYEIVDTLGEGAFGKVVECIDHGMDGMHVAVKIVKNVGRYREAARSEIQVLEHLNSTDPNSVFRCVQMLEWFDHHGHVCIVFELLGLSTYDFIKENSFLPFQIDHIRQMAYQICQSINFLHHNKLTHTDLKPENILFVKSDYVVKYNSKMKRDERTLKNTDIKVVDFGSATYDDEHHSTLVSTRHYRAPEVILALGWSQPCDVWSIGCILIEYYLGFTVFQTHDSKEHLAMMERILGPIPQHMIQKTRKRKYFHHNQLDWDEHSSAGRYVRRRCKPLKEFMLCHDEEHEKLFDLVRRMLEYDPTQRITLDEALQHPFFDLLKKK
Chain of Vascular endothelial growth factor receptor 2 (P35968 whole entry): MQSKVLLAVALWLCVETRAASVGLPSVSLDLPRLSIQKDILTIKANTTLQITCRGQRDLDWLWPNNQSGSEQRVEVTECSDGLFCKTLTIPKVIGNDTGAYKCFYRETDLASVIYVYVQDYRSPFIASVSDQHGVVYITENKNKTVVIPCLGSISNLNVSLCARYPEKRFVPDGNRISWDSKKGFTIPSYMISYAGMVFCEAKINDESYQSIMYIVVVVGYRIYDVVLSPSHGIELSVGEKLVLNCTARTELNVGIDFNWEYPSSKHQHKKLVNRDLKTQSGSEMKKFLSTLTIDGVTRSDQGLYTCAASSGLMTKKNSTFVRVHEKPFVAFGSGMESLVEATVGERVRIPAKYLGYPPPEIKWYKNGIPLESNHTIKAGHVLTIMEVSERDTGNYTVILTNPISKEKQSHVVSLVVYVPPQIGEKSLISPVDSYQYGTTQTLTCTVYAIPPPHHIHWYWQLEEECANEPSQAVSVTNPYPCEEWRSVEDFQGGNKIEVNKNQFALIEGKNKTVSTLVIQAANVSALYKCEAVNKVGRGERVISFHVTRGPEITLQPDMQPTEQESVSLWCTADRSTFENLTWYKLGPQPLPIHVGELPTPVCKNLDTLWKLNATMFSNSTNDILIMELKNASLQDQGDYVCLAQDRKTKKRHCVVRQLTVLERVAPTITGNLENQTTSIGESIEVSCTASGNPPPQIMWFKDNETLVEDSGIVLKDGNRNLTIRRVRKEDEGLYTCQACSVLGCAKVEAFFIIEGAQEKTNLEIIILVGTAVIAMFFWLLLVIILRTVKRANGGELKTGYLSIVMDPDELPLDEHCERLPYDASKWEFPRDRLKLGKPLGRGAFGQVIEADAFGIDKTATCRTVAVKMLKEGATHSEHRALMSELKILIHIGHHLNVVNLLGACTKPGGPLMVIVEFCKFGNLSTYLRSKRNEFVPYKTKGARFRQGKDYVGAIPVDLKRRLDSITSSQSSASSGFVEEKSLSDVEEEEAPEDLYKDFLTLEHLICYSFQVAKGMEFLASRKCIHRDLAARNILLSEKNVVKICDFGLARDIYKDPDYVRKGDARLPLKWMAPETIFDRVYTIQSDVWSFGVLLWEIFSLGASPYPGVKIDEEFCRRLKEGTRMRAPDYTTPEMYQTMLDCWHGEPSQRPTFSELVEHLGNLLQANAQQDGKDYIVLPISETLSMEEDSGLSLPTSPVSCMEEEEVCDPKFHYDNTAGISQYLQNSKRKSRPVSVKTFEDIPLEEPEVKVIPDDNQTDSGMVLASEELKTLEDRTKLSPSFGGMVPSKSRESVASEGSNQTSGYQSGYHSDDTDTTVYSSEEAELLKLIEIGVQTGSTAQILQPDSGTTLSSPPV
Chain of Proto-oncogene tyrosine-protein kinase receptor Ret (P07949 whole entry): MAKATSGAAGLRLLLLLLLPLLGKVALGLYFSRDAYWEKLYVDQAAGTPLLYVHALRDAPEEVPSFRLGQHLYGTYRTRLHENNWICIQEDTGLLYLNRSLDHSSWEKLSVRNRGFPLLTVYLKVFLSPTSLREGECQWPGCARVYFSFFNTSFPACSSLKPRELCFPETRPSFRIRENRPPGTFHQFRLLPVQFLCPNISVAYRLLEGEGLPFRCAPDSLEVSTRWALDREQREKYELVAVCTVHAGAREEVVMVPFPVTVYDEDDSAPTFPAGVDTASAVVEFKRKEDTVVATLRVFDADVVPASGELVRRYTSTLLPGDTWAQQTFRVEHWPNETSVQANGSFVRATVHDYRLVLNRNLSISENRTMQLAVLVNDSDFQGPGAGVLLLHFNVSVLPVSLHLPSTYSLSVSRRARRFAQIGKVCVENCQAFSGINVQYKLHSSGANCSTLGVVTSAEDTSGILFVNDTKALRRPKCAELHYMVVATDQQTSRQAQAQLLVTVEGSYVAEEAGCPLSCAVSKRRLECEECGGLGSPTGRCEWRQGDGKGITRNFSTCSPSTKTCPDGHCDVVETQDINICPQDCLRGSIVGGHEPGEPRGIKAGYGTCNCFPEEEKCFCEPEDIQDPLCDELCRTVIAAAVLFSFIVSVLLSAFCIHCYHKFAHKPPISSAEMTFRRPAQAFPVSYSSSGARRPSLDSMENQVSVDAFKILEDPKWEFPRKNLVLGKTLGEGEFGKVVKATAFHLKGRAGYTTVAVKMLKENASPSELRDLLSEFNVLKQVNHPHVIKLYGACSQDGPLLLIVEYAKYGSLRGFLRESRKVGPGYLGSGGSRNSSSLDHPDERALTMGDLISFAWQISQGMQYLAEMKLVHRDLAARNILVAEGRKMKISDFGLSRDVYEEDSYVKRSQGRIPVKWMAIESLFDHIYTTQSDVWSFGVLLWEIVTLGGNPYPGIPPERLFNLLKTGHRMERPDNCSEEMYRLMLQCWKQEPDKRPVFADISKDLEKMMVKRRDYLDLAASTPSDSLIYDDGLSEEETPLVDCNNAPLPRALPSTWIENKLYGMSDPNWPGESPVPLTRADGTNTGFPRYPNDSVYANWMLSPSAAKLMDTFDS
Chain of Serine/threonine-protein kinase PAK 4 (O96013 whole entry): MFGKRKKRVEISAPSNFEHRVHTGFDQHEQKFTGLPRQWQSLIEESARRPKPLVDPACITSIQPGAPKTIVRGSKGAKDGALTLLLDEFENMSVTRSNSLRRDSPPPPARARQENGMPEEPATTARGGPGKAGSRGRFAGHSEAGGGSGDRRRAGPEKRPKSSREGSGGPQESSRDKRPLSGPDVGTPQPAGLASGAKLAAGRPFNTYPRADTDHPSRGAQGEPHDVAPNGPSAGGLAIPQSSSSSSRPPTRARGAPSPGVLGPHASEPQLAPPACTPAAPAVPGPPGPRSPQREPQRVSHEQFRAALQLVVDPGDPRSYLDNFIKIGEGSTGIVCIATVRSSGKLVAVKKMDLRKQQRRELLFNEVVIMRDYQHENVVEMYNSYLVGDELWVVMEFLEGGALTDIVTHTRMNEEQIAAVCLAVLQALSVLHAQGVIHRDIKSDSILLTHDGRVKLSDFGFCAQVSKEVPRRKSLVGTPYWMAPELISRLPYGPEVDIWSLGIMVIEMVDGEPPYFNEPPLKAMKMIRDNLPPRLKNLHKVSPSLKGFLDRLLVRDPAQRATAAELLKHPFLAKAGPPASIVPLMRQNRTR
Chain of Serine/threonine-protein kinase Nek2 (P51955 whole entry): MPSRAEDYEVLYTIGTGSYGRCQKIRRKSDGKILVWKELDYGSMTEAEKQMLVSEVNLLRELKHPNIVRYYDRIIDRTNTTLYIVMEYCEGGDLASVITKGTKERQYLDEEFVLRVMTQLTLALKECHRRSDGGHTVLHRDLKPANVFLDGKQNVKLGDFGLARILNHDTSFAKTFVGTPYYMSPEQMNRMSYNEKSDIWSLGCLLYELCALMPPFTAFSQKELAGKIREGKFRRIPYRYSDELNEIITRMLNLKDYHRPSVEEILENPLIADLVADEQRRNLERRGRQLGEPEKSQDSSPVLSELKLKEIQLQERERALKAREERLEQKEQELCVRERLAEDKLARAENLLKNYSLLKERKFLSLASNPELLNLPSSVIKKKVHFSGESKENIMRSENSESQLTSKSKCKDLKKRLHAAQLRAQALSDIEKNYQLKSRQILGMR

SMILES: O=C(NNc1cc(N2CCCC2)nc(N2CCCC2)n1)c1ccc([N+](=O)[O-])cc1
- IC50 [1]: 2120 nM (active)
- IC50 [2]: 155 nM (active)
- IC50 [3]: 732 nM (active)

- Ki [4]: > 3980 nM (inactive)
- Ki [5]: 2510 nM (active)
- Ki [6]: 3160 nM (active)
- Ki [7]: > 5010 nM (inactive)
- Ki [8]: 3160 nM (active)
- Ki [9]: > 2510 nM (inactive)
- Ki [10]: 794 nM (active)
- Ki [11]: 3160 nM (active)
- Ki [12]: 1000 nM (active)
- Ki [13]: 501 nM (active)
SMILES: O=C(Cc1cccs1)Nc1nc2ccccc2s1

SMILES: O=S(=O)(O)c1cccc2c(N=Nc3ccc(O)c4ncccc34)cccc12
- EC50 [14]: > 38000 nM (not active)
- IC50 (Beta-galactosidase): 46300 nM (inactive)
- EC50 (Insulin-degrading enzyme): 17300 nM (inactive)
